Results: patent publication US11472846B2, “Compositions and methods for treating diseases by inhibiting exosome release” (priority 2016, dated 2022)

Assays:
Assay type in all cases: cell-based, human
[1] = test system: MCF-7 breast cancer cells; test: Exosome release by acetylcholinesterase (AchE) assay, MCF-7; conditions: for average AChE concentration days 1 to 5: MCF-7 cells, five-day treatment
Method: 1-6. Exosome isolation and purification. Exosomes were isolated from breast cancer cells by differential centrifugation as previously described (Ali SA. et al., 2010). Untreated tumor cells were used as a control. Briefly, the above treated and untreated cell culture supernatants were centrifuged at 400×g for 10 minutes. The supernatants were transferred to a clear tube and centrifuged at 10,000×g for 30 minutes. The supernatants from the second spin were ultracentrifuged at 200,000×g for 2 hours to pellet exosomes. Finally, the exosome pellets were re-suspended with PBS and stored at 4° C. until used for analysis.
1-7. Exosome characterization by acetylcholinesterase (AchE) assay. Purified exosomes were quantitated by measurement of AchE as described (Ellman et al., 1961). Briefly, a 100 mM dithibionitrobenzoic (DTNB) solution was prepared for use as a stock color indicator, and a 28.9 mg/mL acetylthiocholine iodide in PBS solution was prepared as a stock substrate. The stock substrate stock can be stored at −20° C. up to one month, while the color indicator can be stored at 4° C. for two weeks. A working solution was prepared by mixing 10 mL of PBS with 200 μL of Substrate and 500 μl of DTNB. 50 μL of each exosome sample was transferred to 96 well microtitre plates, and a standard curve was prepared using AchE from 0.98 mU/mL to 2000 mU/mL. After 50 μL of standards were added into separate wells, 200 μL of the working solution was added to all wells. After 20 min incubation, AchE activity was measured at 450 nm using a SpectroMax M5 fluorimeter.
7-5. Exosome isolation and purification. Exosomes were isolated from breast cancer cells and leukemia cells using the ExoQuick-TC Exosome Precipitation Kit (System Biosciencences [SBI], Mountain View Calif.) or the miRCURY Exosome Isolation Kit (EXIQON, Woburn, Mass.) according to the manufacturer's instructions. Untreated tumor cells were used as a control. Briefly, treated and untreated cell culture supernatants (10 mL) were centrifuged at 3000×g for 15 minutes. The resulting supernatants were transferred to a clear tube, 2 mL of ExoQuick-TC buffer was added, mixed and incubated overnight at 4° C. Following the incubation, the sample contents were centrifuged at 1500×g for 30 minutes, the supernatants were aspirated off, the pellets were centrifuged at 1500×g for 5 minutes and any further traces of supernatant were removed (SBI). Alternatively, treated and untreated cell culture supernatants were centrifuged at 10,000×g for 5 minutes to remove cell debris, supernatants (10 ml) were transferred into new tubes, and 4 mL of precipitation buffer (EXIQON) was added, and the contents were mixed and incubated at 4° C. overnight. Following the incubation, the sample contents were centrifuged at 10,000×g for 30 minutes (EXIQON). Exosome-containing pellets were re-suspended in PBS and stored at 4° C. or −80° C.
7-6. Exosome characterization by acetylcholinesterase (AchE) assay. Purified exosomes were quantitated by measurement of AchE as previously described (Huang et al., Oncotarget, 2017. 8(7): pp. 11302-11315). Briefly, 100 mM dithibionitrobenzoic (DTNB) was prepared as a stock color indicator, and prepared a stock substrate containing 28.9 mg/mL of acetylthiocholine iodide in PBS. Substrate stock can be stored at −20° C. up to one month; the stock color indicator can be stored at 4° C. for two weeks. A working solution was prepared by mixing 10 mL of PBS with 200 μL of substrate and 500 μl of DTNB. 50 μL of each exosome sample was transferred to a 96 well microtitre plate, and a standard curve for AchE concentrations was prepared using AchE from 0.98 mU/mL to 2000 mU/mL. After 50 μL of standards were added into separate wells, 200 μL of the working solution was added to each well. After a 20 min incubation, AchE activity was measured at 450 nm using a SpectroMax M5 fluorometer (FIG. 11).

MCF-7 cells = test: Complement-mediated cell cytotoxicity assay (trypan blue), MCF-7; conditions: for cell death under complement-positive conditions: 280 nM PEG-SMRwt-Clu or 560 nM SMRwt-CPP 60 min, then anti-CXCR4 antibody and NHS 60 min; for cell death under complement-negative conditions: 280 nM PEG-SMRwt-Clu or 560 nM SMRwt-CPP, 60 min
Method: (§1) 7-9. Complement-mediated cell cytotoxicity assay. Complement-mediated cell cytotoxicity assays were performed as previously described (Reiter et al., Mol Immunol. (1992) 29(6): p. 771-81). Briefly, MCF-7, MDA-MB-231 and K562 cells were either mock-transfected or transfected with mortalin siRNA. Cells were incubated with 1 μg/ml of anti-CXCR4 antibody for 30 min at 4° C., followed by treatment with PEG-SMRwt-Clu peptide or PEG-SMRmut-Clu peptide or SMRwt-CPP peptide or SMRmut-CPP peptide alone, or treated with SMR peptide combined with complement from normal human serum (NHS) or heat-inactivated normal human serum (NIS) for 60 min at 37° C. Percentage of cells lysed were determined by a trypan blue exclusion assay using the TC10™ Automated Cell Counter (Bio-Rad, Richmond Calif.). (FIG. 14, FIG. 15, Panel D).

MDA-MB-231 cells = test: Complement-mediated cell cytotoxicity assay (trypan blue), MDA-MB-231; conditions: for cell death under complement-positive conditions: 280 nM PEG-SMRwt-Clu or 560 nM SMRwt-CPP 60 min, then anti-CXCR4 antibody and NHS 60 min; for cell death under complement-negative conditions: 280 nM PEG-SMRwt-Clu or 560 nM SMRwt-CPP, 60 min
Method: as §1, with “Cells were incubated with 1 μg/ml of anti-CXCR4 antibody for 30 min at 4° C., followed by treatment with PEG-SMRwt-Clu peptide or PEG-SMRmut-Clu peptide” left out

In the case of VGFPVAAVGFPVGRKKRRQRRRPPQ [SMRwt-CPP], the “average AChE concentration days 1 to 5” value [1] is reported as 22 mU/mL, the “cell death under complement-positive conditions” value (MCF-7 cells) is reported as 29% and the “cell death under complement-negative conditions” value (MCF-7 cells) is reported as 2.1%. For the same sequence, the “cell death under complement-positive conditions” value (MDA-MB-231 cells) was 9% and the “cell death under complement-negative conditions” value (MDA-MB-231 cells) was 3.6%.

“NXNVGFPVAAVGFPVHPLSKHPYWSQP (SEQ ID NO: 37) [PEG-SMRwt-Clu]” was tested, and the “AchE activity in exosomes” value ([1]; MCF-7 cells treated 48 hr, control exosomes 113.49 mU/mL) was 41.95 mU/mL, the “average AChE concentration days 1 to 5” value [1] was 31 mU/mL and the “cell death under complement-positive conditions” value (MCF-7 cells) was 26%. For the same sequence, the “cell death under complement-negative conditions” value (MCF-7 cells) was 2.1%, the “cell death under complement-positive conditions” value (MDA-MB-231 cells) was 76% and the “cell death under complement-negative conditions” value (MDA-MB-231 cells) was 3.6%.
